Tests used:
HT1080 cells [1] = experiment: γH2AX immunofluorescence ICS DA and nuclear intensity in HT1080 cells; format: cell-based; settings: HT1080, 1 μM PARPi overnight
Protocol: (§1) Cells were plated in 8-well […] slides (Thermo or Ibidi) to achieve 50% confluence overnight. Cells were then treated and fixed with 4% paraformaldehyde in PBS at room temperature for 10 minutes. Antibody staining was performed according to the manufacturers protocol. Following fluorescent secondary antibody labeling, prolong gold with DAPI (Cell Signaling Technologies) was added and samples were stored for up to 1 week prior to imaging.
ICS analysis was performed in MATLAB as previously described (41). Briefly, nuclei were segmented from the DAPI channel with the MATLAB function, imbinarize, converting the greyscale image to a binary dependent on an automatically defined threshold. The MATLAB function, regionprops, was used to identify single nuclei as objects. Each nucleus was used as a mask to perform ICS analysis on the antibody-stained channel, within size limitations for a nucleus (objects >400 and <3000 pixels). To ensure the analysis of antibody stained nuclei, nuclei under an average intensity of 200 au after background subtraction were excluded. The spatial autocorrelation functions were calculated using Fourier methods, then fit to a 2D Gaussian using a nonlinear least-squares algorithm (41). Using the outputs of the fitting, the mean number of independent emitting fluorescent entities per focal spot area and subsequently the DA were determined (59). DA measurements across experiments were normalized by the control in each dataset. […] Any DA values exceeding 3 standard deviations from the mean were defined as incorrectly segmented and removed. Data were plotted in Prism and analysis performed in Prism or Excel.

HCC1937 cells = experiment: 53BP1-mApple condensate anisotropy (homo-FRET) and intensity in HCC1937 cells; format: cell-based; settings: HCC1937, 1 μM PARPi and 100 μM TMZ for 1 hour
Protocol: (§2) All fluorescence imaging was performed on an Olympus FV1000 multiphoton/confocal microscope. Anisotropy measurements were performed through custom modifications to the imaging system as previously described (30). Briefly, linear polarization of two photon excitation light at 910 nm (MaiTai femtosecond laser, Spectra Physics) was controlled by a glan-thompson prism and half wave plate. […] was collected in orthogonal orientations through two detectors, parallel and perpendicular to excitation polarization, through a polarizing beam splitter that replaced a dichroic mirror in the emission filter cube. The alignment and detector gain and noise were validated each imaging session through measurements of a standard slide. Images were taken with an Olympus 25× XLPlan N objective, NA 1.05, and 3× digital zoom. Confocal imaging was performed with an Olympus XLUMPlanFL N 20× objective, NA 1.00 with chromatic correction, and 3× digital zoom.
Cells were grown on 12 mm round, uncoated, sterilized glass coverslips in 24-well plates for 24 hours. Cells were treated with PARPi and 100 μM TMZ for 1 hour or 10 nM GMX1778 overnight followed by 100 μM TMZ for 1 hour. TMZ was added to stimulate new DNA damage induced condensates in the presence of PARPi or NAD″ depletion. Cells were then transferred to the microscope for anisotropy imaging. Images were analyzed in MATLAB. Nuclei were segmented through intensity thresholding and condensates were segmented through further intensity thresholding with a higher threshold. Values of segmented nuclei and condensates were determined through the regionprops function. Segmentation was corrected through area restrictions to ensure that regions of interest were isolated condensates. The thresholding parameters were consistent throughout experiments. The average intensity and anisotropy of each segmented nuclei or condensate was then calculated. Data were plotted in Prism and analysis performed in Prism or Excel.

7 cell lines = experiment: γH2AX immunofluorescence DA and intensity in 7 cell lines; format: cell-based; settings: all cell lines, 1 μM PARPi overnight
Protocol: as §1
ICS analysis was performed in MATLAB as previously described (41). Briefly, nuclei were segmented from the DAPI channel with the MATLAB function, imbinarize, converting the greyscale image to a binary dependent on an automatically defined threshold. The MATLAB function, regionprops, was used to identify single nuclei as objects. Each nucleus was used as a mask to perform ICS analysis on the antibody-stained channel, within size limitations for a nucleus (objects >400 and <3000 pixels). To ensure the analysis of antibody stained nuclei, nuclei under an average intensity of 200 au after background subtraction were excluded. The spatial autocorrelation functions were calculated using Fourier methods, then fit to a 2D Gaussian using a nonlinear least-squares algorithm (41). Using the outputs of the fitting, the mean number of independent emitting fluorescent entities per focal spot area and subsequently the DA were determined (59). […]

SKOV3 cells = experiment: γH2AX immunofluorescence in SKOV3 cells (intensity, Imaris Spots, ICS TNoP and DA); format: cell-based
Text: (§3) For the ICS analysis, nuclei were segmented from the DAPI channel using a watershed approach in MATLAB. Briefly, we applied a difference of gaussians for size-based feature extraction of nuclei in the image (upper gaussian σ=100, lower gaussian σ=2-5 dependent on cell size). This feature enhanced image was then binarized to create a primary mask (using the function imbinarize) and connected components under 100 pixels were removed (using the function bwareaopen). We then created a distance transform of the resulting binary image (using the function bwdist). Seed points were determined by finding the regional maximum of a gaussian filtered image, with a gaussian σ of appropriate size for seed point detection (σ×7 or 8 dependent on cell size). The seed points were applied to the distance transform, and we applied the watershed function to the resulting image to obtain masks for each nucleus (extracted using the function regionprops).
(§4) Using the nucleus masks, we performed ICS analysis on the antibody-stained channel, within size limitations for a nucleus (objects >400 and <2400 pixels). Intensity, DA and TNOP were calculated for each cell. In this analysis, since the ROI is defined by the nucleus mask (segmented from nuclear signal using DAPI staining), TNoP represents the total number of particles per nucleus, with the image area being the number of pixels in each nuclear mask.
(§5) Measurements across experiments were normalized by the control in each dataset. […] Data were plotted in Prism and statistical analysis was performed in Excel.
(§6) Imaris spots analysis were performed with Imaris 9.8 with background subtraction, using a spot size of 1 μm that was measured from the smallest distinguishable foci from the control image. For images with multiple nuclei, ImarisCell was used with the detection type “cell and vesicles”, where the nucleus in the DAPI channel was modelled as the “cell” and antibody-labeled foci were modelled as the “vesicles”. This enabled us to count the number of foci per nucleus for multiple cells. In each dataset, the automatic “quality” threshold was determined from the control image and the same threshold was used for every image in the dataset to be able to compare the outputs across datasets. Similar to the ICS analysis, only cells with an area between 400-2400 voxels were included for analysis.
(§7) All chemicals were purchased from Sigma unless otherwise noted. All drugs were purchased from Selleck Chemicals. Cells were cultured in media supplemented with 10% fetal bovine serum and 1% penicillin/streptomycin. OVCA429 were originally obtained from Dr. Michael Birrer and cultured in DMEM. SKOV3 was obtained from ATCC and cultured in RPMI. For MMS treatment, cells were incubated for 6 hours before fixation with 4% formaldehyde, whereas for treatment with PARP inhibitors, cells were incubated for 24 hours before fixation.
(§8) Cells were plated in 8-well slides (Fisher) to achieve 50% confluence overnight. Cells were then treated and fixed with 4% formaldehyde in PBS at room temperature for 10 minutes. Antibody staining was performed according to the manufacturers protocol (Cell Signaling Technologies or Abcam). Primary antibodies used were γH2AX (CST, #2577), RPA1 (CST, #2267) and RAD51 (Abcam, 63801), with Anti-rabbit IgG Fab2 Alexa Fluor 647 (CST, #4414) as the secondary fluorescent antibody. After antibody labeling, prolong gold with DAPI (CST) was added and samples were stored for up to 1 week prior to imaging. Confocal imaging was performed on an Olympus FV1000 multiphoton/confocal microscope using an Olympus XLUMPlanFL N 20× objective, NA 1.00 with chromatic correction, and 3× digital zoom. DAPI was excited with a 405 nm laser, while Alexa Fluor 647 was excited with a 635 nm laser. A multiband (DM 405/488/561/633 nm) dichroic mirror was used to direct the excitation laser and collect emission. […]

OVCA429 cells = experiment: γH2AX immunofluorescence in OVCA429 cells (intensity, Imaris Spots, ICS TNoP and DA); format: cell-based
Text: as §3, §4, §5, §6, §7, §8

PARP1 [2] = target: T1, PARP1 (Homo sapiens, UniProt P09874); experiment: PARP1 trapping by chromatin fractionation in HT1080 cells; format: cell-based; settings: HT1080, 100 μM veliparib vs 1 μM talazoparib
Protocol: Lysate was then pelleted by centrifugation at 14,000 g for 15 min at 4° C. Supernatant was transferred to a clean tube and total protein was determined using a BCA assay (Pierce). Protein was loaded into a NuPAGE gel (Thermo Fisher) and transferred to nitrocellulose paper (Thermo Fisher). Blocking and antibody labeling was then carried out according to the antibody manufacturer's protocol. For PAR measurements, cells were treated with TMZ for 1 hour, or 1 μM H2O2 for 10 minutes in 6-well plates. Cells were trypsinized and washed once with PBS prior to cell lysis. Western blot expression levels were quantified by inverting the red channel of an image of the blot in FIJI, subtracting the background intensity and measuring the total intensity of the lane. These values where then normalized to the control signal. […] The media was removed, and cells were scraped off the culture dish in 1 ml PBS. The cells were pelleted by centrifugation at 500 g for 4 minutes at 4° C. and the solution was removed. Pellets were resuspended in 250 μl lysis buffer (10 mM HEPES, 10 mM KCl, 1.5 mM MgCl2, 340 mM sucrose, 10% glycerol, 0.1% Triton X-100, pH 7.9, protease inhibitors (Thermo Fisher)) and incubated on ice for 10 minutes. Nuclei were separated by centrifugation at 1300 g for 5 minutes at 4° C. and the solution was collected (cytoplasm fraction). […]

HT1080 cells [3] = experiment: 53BP1-mApple condensate anisotropy and intensity in HT1080 cells; format: cell-based; settings: HT1080, increased veliparib concentrations
Protocol: as §2
Cells were grown on 12 mm round, uncoated, sterilized glass coverslips in 24-well plates for 24 hours. Cells were treated with PARPi and 100 μM TMZ for 1 hour or 10 nM GMX1778 overnight followed by 100 μM TMZ for 1 hour. […] Images were analyzed in MATLAB. […] Values of segmented nuclei and condensates were determined through the regionprops function. […] The average intensity and anisotropy of each segmented nuclei or condensate was then calculated. […]

PARP1 [4] = target: T1, PARP1; settings: actual rate multiplied by 10^−7 for the stochastic model
Text: ka (trap): The association constant of PARPi for PARP1. […] Values were taken as an average of previous measurements. […] Values were taken as an average of previous measurements. […] Values were taken as an average of previous measurements.
Association of PARPi to PARP1 (p.ka_trap): The association constant of each PARPi on PARP1. […] Rates were corrected to account for the interpretation of PARP1 concentration relative to DNA through multiplying the actual rate by 10^−7. This rate correction was performed for all association constants.

PARP = PARP (Homo sapiens, UniProt P09874); settings: HT1080, 1 μM PARPi, 500 nM fluorescent olaparib
Protocol: Cells were grown on 25 mm round, uncoated, sterilized glass coverslips in 6-well plates for 24 hours. […] Coverslips were removed from the 6-well plates, mounted onto a perfusion chamber (Warner Instruments), sealed with vacuum grease and perfused with a custom tubing setup. The chamber was then mounted onto the microscope and temperature was maintained at 37° C. using a heating pad and feedback loop. Cells were initially located using fluorescent drug or autofluorescence and allowed to temperature equilibrate on the microscope stage for at least 5 minutes. Images were acquired using the anisotropy configuration as described above. After initial images were acquired, the chamber was perfused with 10× volume of the wash media containing fluorescent drug while chamber media and excess wash media were aspirated out of the chamber with vacuum. Images were then acquired at the desired time points while correcting for any drift. Association of fluorescent drug measurements were performed through rapid addition of media containing fluorescent drug (500 nM) and immediate image acquisition.
Nuclei were segmented in MATLAB and the average nuclear intensity and anisotropy were calculated using the regionprops function. […] Values were then plotted as a function of time, with t=0 when PARPi was removed, in Prism (Graphpad) and a one phase association curve was fit to obtain the binding rate. […]

PARP1 [5] = target: T1, PARP1; settings: average of previous measurements; cited from earlier work
PARP1-DNA = PARP1-DNA (Homo sapiens, UniProt P09874); settings: from previous findings; cited from earlier work
Sequence of PARP1-DNA (P09874 whole entry): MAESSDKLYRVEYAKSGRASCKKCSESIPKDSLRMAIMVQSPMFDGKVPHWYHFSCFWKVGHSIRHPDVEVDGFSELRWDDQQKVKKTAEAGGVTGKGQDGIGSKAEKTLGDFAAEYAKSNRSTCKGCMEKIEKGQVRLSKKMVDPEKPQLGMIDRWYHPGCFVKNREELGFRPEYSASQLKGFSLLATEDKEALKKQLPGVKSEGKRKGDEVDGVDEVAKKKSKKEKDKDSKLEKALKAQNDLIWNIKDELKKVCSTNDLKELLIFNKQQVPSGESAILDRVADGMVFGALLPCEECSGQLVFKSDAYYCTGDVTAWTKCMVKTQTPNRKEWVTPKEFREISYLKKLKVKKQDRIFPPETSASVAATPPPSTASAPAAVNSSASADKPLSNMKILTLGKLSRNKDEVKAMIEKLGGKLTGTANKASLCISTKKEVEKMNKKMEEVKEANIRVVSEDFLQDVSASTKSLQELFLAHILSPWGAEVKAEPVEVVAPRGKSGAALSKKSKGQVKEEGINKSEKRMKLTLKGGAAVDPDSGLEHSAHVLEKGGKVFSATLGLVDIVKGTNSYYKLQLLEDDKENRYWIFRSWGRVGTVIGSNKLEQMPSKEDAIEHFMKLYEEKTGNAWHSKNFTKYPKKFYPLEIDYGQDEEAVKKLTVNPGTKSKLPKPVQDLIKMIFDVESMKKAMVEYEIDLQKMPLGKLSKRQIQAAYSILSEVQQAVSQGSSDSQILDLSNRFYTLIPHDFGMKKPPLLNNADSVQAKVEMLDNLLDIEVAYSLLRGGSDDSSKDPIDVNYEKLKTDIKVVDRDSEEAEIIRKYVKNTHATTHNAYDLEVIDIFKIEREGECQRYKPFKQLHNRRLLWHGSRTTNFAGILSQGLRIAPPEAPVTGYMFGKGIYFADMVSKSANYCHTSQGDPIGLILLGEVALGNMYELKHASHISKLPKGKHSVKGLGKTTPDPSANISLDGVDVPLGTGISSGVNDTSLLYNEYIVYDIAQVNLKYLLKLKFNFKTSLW

T1 sequence (P09874 whole entry, species assumed): as the sequence (P09874 whole entry) above
Sequence of PARP (P09874 2-1014): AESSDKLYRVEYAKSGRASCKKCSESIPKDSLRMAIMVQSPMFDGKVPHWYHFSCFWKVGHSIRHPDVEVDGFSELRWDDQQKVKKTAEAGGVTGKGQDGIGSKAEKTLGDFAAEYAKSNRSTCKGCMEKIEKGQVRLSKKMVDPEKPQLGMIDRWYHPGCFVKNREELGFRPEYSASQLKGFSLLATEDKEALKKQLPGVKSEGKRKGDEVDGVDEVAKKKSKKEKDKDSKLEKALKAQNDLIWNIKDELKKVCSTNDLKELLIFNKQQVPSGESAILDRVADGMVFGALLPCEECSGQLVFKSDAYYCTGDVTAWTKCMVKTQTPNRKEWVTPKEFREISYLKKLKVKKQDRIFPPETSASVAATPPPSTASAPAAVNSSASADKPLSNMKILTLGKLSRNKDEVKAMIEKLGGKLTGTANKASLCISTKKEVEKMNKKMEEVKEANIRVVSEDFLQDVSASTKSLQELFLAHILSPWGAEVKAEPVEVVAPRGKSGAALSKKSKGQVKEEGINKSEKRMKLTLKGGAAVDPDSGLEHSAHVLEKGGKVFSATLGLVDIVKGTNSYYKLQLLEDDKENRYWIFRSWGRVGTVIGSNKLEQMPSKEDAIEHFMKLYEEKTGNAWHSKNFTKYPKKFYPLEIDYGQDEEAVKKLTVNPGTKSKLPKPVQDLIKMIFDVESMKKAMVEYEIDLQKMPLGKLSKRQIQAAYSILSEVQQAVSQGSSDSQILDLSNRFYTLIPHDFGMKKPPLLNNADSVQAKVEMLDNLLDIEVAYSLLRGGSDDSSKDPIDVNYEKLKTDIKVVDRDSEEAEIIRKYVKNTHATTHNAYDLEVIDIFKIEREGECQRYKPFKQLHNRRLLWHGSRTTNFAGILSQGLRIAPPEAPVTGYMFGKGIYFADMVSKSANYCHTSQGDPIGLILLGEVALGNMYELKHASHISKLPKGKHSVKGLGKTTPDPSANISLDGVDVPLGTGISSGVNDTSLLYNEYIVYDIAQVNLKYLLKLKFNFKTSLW

| Compound | γH2AX levels measured by intensity (HT1080 cells [1]) | 53BP1-mApple condensate anisotropy vs control (HCC1937 cells) | γH2AX levels (intensity) over control (7 cell lines) | ICS TNoP of γH2AX, dose dependence (SKOV3 cells; SKOV3) | Normalized γH2AX intensity (SKOV3 cells; SKOV3, 1 μM veliparib, 24 hours) | ICS DA of γH2AX at 100 μM, compared to respective controls (SKOV3 cells; SKOV3, 100 μM) | Number of γH2AX foci (Imaris Spots) at the highest dose of PARP inhibitor (SKOV3 cells; SKOV3, highest dose) | ICS DA of γH2AX, dose dependence (OVCA429 cells; OVCA429) | Imaris Spots analysis of γH2AX, dose dependence (OVCA429 cells; OVCA429) | γH2AX intensity, dose dependence (OVCA429 cells; OVCA429, PARP inhibitors) | PARP1 trapping (PARP1 [2]) | Condensate 53BP1-mApple intensity (HT1080 cells [3]) | p.ka_trap: association of PARPi to PARP1, corrected rate (PARP1 [4]) | Apparent dissociation constant (koff) of PARPi in live cells (PARP) | ka (trap): association constant of PARPi for PARP1 (PARP1 [5]) | kd (trap): dissociation of PARPi from PARP1(-DNA) (PARP1 [5]) | kd (rel PARPi): dissociation constant of PARPi-PARP1 from DNA (PARP1-DNA) |
| --- | --- | --- | --- | --- | --- | --- | --- | --- | --- | --- | --- | --- | --- | --- | --- | --- | --- |
| Cn1ncnc1[C@H]1c2n[nH]c(=O)c3cc(F)cc(c23)N[C@@H]1c1ccc(F)cc1 [talazoparib] | high levels of γH2AX | significantly lower condensate anisotropy compared to control | increased γH2AX levels |  |  |  |  |  |  |  |  |  |  |  |  |  |  |
| C[C@]1(c2nc3c(C(N)=O)cccc3[nH]2)CCCN1 [veliparib] |  | not |  | failed to induce any correlative TNOP dose dependence | slight decrease | higher value than 100 μM olaparib | higher | full dose dependent increases in γH2AX clustering | failed to capture the full dose dependent DNA damage | did not show a dose dependence | unable to reproduce the trapping observed with just 1 μM talazoparib | lowered condensate 53BP1-mApple intensity | 0.18 M⁻¹ s⁻¹ | values similar to those previously determined in purified protein | 1.8e+06 M⁻¹ s⁻¹ | 0.005 s⁻¹ | 0.00408 s⁻¹ |

Source: US20250251402A1, “METHODS OF DETECTING MOLECULAR AGGREGATES USING IMAGE CORRELATION SPECTROSCOPY (ICS)” (The General Hospital Corporation, priority 2022, published 2025)
